For data set [1], the system named is ALDH1. The experiment in a line: ALDH1 activity by resorufin propionate after treatment with inhibitors of ALDH 1 and 3 (HL-60 cells). The format is cell-based. Conditions: inhibitor 8 μM, 6 hours, substrate 10 μM, one hour, P<0.001, FIG. 3. Here is the method: In a 96-well plate, the HL-60 cells were inoculated at a concentration of 50.000 cells/well in RPMI-1640 medium without phenol red supplemented with L-Glutamine, Penicillin, Streptomycin and 10% Fetal Calf Serum (FCS) supplemented with dimethyl ampalthiolester (DIMATE) a specific inhibitor ALDH 1 and 3, morpholino ampal thiolester (MATE) a specific inhibitor of ALDH3, at concentrations of 8 μM respectively. After incubation for 6 hours, the substrates of the different ALDHs respectively resorufine propionate for ALDH1 and resorufin 4-diethylaminobenzoate for ALDH3, were added to a final concentration of 10 μM and then incubated for one hour at +37° C. The plate was then read using an Appliskan fluorescent plate reader (ex=560 nm, Em=600). The data were expressed in relative fluorescence units produced by an equal number of cells.

For data set [2], the system named is ALDH1. Put plainly: Identification of positive ALDH1 cells by flow cytometry via resorufin propionate. The note with it: 15 μM Dimate, 5 hours, FIG. 4. Type of data set: cell-based. The method, then:
In a 60 mm Petri dish, 500.000 cells were incubated with RPMI-1640 medium supplemented with L-Glutamine, Penicillin, Streptomycin and 10% Fetal Calf Serum overnight at +37° C. with 5% atmosphere. CO2. For the negative control, the cells were taken up in medium supplemented with 15 μM of dimethyl ampal thiolester (Dimate), a specific inhibitor of ALDH1 and 3, then incubated for 5 hours at 37° C., 5% CO2. After trypsination, the cells were taken up in supplemented RPMI medium and centrifuged at 800 g for 5 minutes. The cell pellet was then taken up in fresh supplemented medium containing 10 μM of resorufin propionate, and then incubated for 1 hour in a polycarbonate tube at 37° C., 5% CO2. After incubation, the cells were then centrifuged and then washed in cold PBSx1 and finally taken up in […] of cold PBSx1. The solution was then analyzed by flow cytometry ([…] or red laser).
In general terms: A flow cytometer gives signals particle by particle.

The target of data set [3] is T1, ALDH1A1 (Homo sapiens, UniProt P00352).
T1 construct: purchased R&D Systems 5869-DH
T1 sequence (P00352 1-501): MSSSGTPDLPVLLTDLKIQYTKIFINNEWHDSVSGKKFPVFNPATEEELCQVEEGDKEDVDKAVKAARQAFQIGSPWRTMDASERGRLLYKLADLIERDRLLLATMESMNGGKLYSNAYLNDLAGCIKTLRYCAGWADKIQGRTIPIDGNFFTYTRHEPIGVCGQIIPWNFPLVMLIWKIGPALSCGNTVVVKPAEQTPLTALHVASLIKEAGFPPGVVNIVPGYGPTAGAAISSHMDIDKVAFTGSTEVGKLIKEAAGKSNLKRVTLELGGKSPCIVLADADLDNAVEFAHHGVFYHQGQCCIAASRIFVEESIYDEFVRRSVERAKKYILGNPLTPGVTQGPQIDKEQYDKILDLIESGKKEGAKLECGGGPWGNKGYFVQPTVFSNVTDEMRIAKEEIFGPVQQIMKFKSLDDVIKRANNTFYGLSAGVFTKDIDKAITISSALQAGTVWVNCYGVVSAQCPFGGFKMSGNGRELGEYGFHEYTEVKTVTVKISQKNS
Put plainly: Double localization of resorufin propionate and ALDH1A1 by fluorescent microscopy (NCI-H522 cells). Type of data set: cell-based. Conditions: DIMATE 5 μM, 6 hours, results not shown. The method, then:
In a 24-well plate with microscope glasses previously washed with ethanol and then placed in the wells, the NCI-H522 cells were added at a cell concentration of 50.000 cells/well and then incubated in RPMI-1640 medium supplemented with L-Glutamine, Penicillin, Streptomycin and 10% Fetal Calf Serum overnight at +37° C. with a 5% CO2 atmosphere. The next day, the culture medium was changed with either DIMATE (5 μM) or the treatment vehicle and incubated for 6 hours. The cells were incubated for 30 minutes with culture medium supplemented with 10 μM of resorufin propionate, were then washed with cold PBS and then fixed with paraformaldehyde for 15 minutes at 37° C. The cells were permeabilized and saturated with PBS; 3% bovine albumin; 0.3% triton for 1 hour. The incubation was carried out with the anti-ALDH1A1 antibody (R&D System, MAB5869) for 1 hour at +37° C., then with an anti-mouse antibody coupled to fluorescein for 1 hour at room temperature in the dark, with PBS washes between the two steps. 3 washes with PBS were carried out then the microscopy glasses were mounted with an anti-decoloration support supplemented with DAPI. The cells were then observed under a microscope.

Substrate in data set [4]: CCC(=O)Oc1ccc2nc3ccc(=O)cc-3oc2c1
Put plainly: Determination of the Km and Vmax of resorufine propionate with purified ALDH1A1. Type of data set: biochemical. Conditions: other: column ALDH1; substrate range 70-250 μM; pH 6.0; 37.0 °C. The method, then: (§1) In 50 μl of 0.1 M phosphate buffer pH6.00; 0.2 M KCl; 2 mM NADP+; 2 mM EDTA, a range of resorufine propionate was made: 250, 200, 150, 125, 100, 90, 80 and 70 μM and 0 μM. 50 μL of recombinant enzyme solution at 2.5 mU/well ALDH1A1 (R&D Sytems, 5869-DH), ALDH2 (abcam, ab87415) and ALDH3A1 (R&D Sytems, 6705-DH) was added. The incubation was carried out for 30 minutes at +37° C. and then the fluorescence reading was made (Em: 590 nm, Ex: 530 nm). The data were then converted to resorufin released (nM·min-1.μg^−1) and Km and Vmax were calculated using the Michaelis-Menten equation using GraphPad Prism 5.0.

Substrate in data set [5]: CCC(=O)Oc1ccc2nc3ccc(=O)cc-3oc2c1
The experiment in a line: Determination of the Km and Vmax of resorufine propionate with purified ALDH2. Type of data set: biochemical. The note with it: other: column ALDH2; substrate range 70-250 μM; pH 6.0; 37.0 °C. Here is the method:
as §1

As a reminder, the melting point is the temperature, or range, at which the solid turns liquid. With `CCCCCC(=O)Oc1ccc2c(c1)Oc1cc(OC(=O)CCCCC)ccc1C21OC(=O)c2ccccc21` [Fluorescein di-hexanoate], the melting point lay within 103 to 105 °C. On to `CSC(=O)C#CC(C)(C)N(C)C` [DIMATE, dimethyl ampalthiolester], for which, in data set [1], the “inhibition of fluorescence (resorufin propionate signal)” value is recorded as “significant inhibition of fluorescence”. In addition, in data set [2] (10 μM resorufin propionate), the “positive ALDH1 cells (living cells), flow cytometry” value is given as “positive ALDH1 cell inhibition is observed”. Also, the viability entry in data set [2] (Calcein-AM) is “decrease in viability”. The “conversion of resorufin propionate to resorufin, fluorescent microscopy” value in data set [3] was “inhibited”. As for `CC1=C(/C=C/C(C)=C/C=C/C(C)=C/C(=O)Oc2ccc3c(c2)Oc2cc(OC(=O)/C=C(C)/C=C/C=C(C)/C=C/C4=C(C)CCCC4(C)C)ccc2C32OC(=O)c3ccccc32)C(C)(C)CCC1` (centres unmarked) [Fluorescein di-retinoate], the melting point is 145 to 150 °C (dec.). The molecule `CCCCCCCC(=O)Oc1ccc2c(c1)Oc1cc(OC(=O)CCCCCCC)ccc1C21OC(=O)c2ccccc21` [Fluorescein octanoate, Fluorescein dioctanoate] yielded a melting point of 50 to 52 °C.

B1: ALDH1A1 (Homo sapiens) (protein)
chain: T1 sequence (P00352 1-501)
notes: purchased R&D Systems 5869-DH
By Km is commonly meant the concentration of substrate that gives half-maximal velocity. In the case of B1, in data set [4], the Km was found to be 115 µM and the Vmax worked out at 12132 nM/min/µg.

B2: ALDH2 (Homo sapiens) (protein)
chain: SAAATQAVPAPNQQPEVFCNQIFINNEWHDAVSRKTFPTVNPSTGEVICQVAEGDKEDVDKAVKAARAAFQLGSPWRRMDASHRGRLLNRLADLIERDRTYLAALETLDNGKPYVISYLVDLDMVLKCLRYYAGWADKYHGKTIPIDGDFFSYTRHEPVGVCGQIIPWNFPLLMQAWKLGPALATGNVVVMKVAEQTPLTALYVANLIKEAGFPPGVVNIVPGFGPTAGAAIASHEDVDKVAFTGSTEIGRVIQVAAGSSNLKRVTLELGGKSPNIIMSDADMDWAVEQAHFALFFNQGQCCCAGSRTFVQEDIYDEFVERSVARAKSRVVGNPFDSKTEQGPQVDETQFKKILGYINTGKQEGAKLLCGGGIAADRGYFIQPTVFGDVQDGMTIAKEEIFGPVMQILKFKTIEEVVGRANNSTYGLAAAVFTKDLDKANYLSQALQAGTVWVNCYDVFGAQSPFGGYKMSGSGRELGEYGLQAYTEVKTVTVKVPQKNS
notes: purchased abcam ab87415
Turning to B2, in data set [5], the Km was determined as 116 µM and the Vmax was 6693 nM/min/µg.

Values taken from patent US11519014B2, “Specific substrate of an ALDH isoenzyme” (ADVANCED BIODESIGN, priority 2016, dated 2022).
